Columns and labels:
Conditions in all cases: in vivo
[1] = system: Reticulitermes flavipes; assay: T-tube choice-test behavioral bioassay with CO2
Method: (§1) Behavioral bioassay apparatus: The choice-test bioassay apparatus was constructed from a glass T-tube (5 mm inside diameter, 5 mm stem, with each branch 4.5 cm long). Each branch of the ‘T’ was bent downward (2.5 cm from the junction of the ‘T’) at a 45° angle to form a pitfall trap. A 5 mm NMR cap (cat. no. 100-0050, Drummond Scientific, Broomall, Pa.) with a 1 mm pinhole in it was firmly pushed over the end of each bent branch. A 25 cm length of Teflon tubing (0.8 mm inside diameter) was inserted 3 mm into the hole in each NMR cap and the other end of the tubing was connected to a 35 ml polyethylene syringe (cat. no. 106-0490, Sherwood Medical, St. Louis, Mo.). The two 35-ml syringes were connected to a syringe pump which was adjusted to provide an airflow of 1 ml per min into each choice arm of the bioassay apparatus.
(§2) Mixtures of CO2 and ambient air were tested to determine the termite response to a range of CO2 concentrations. […] The CO2 concentration of the syringes was determined by using GC-MS-SIM analysis (see below) before each bioassay. […]
(§3) Procedure: For bioassays, termite workers were collected from plastic tubs by using a camel's hair brush and were placed into a holding container constructed from a 3 cm length of Teflon tubing (8 mm inside diameter). […] Bioassays were conducted for 15 min, after which the number of termites in each pitfall was recorded. […]

[2] = system: Reticulitermes virginicus; assay: T-tube choice-test behavioral bioassay with CO2
Method: as §1, §2, §3

[3] = system: western corn root worm larvae; assay: Glass bead Y-tube choice test, corn volatiles versus CO2 (Example 19); parameters: species or system Diabrotica virgifera virgifera LeConte
Method: Bioassay Procedure. All bioassays were choice tests conducted using a vertical glass “Y” tube apparatus filled with 3-mm glass beads (Bernklau and Bjostad 1998) (FIG. 62). Volatile compounds were prepared in 35-ml polyethylene syringes (cat no. 106-0490, Sherwood Medical, St. Louis, Mo.) and a syringe pump (Sage Model 355, Fisher Scientific, Pittsburgh, Pa.) was used to provide, slow (1 ml per min) consistent delivery of the compounds into each choice arm of the bioassay apparatus. Twenty newly-hatched larvae (less than 12-hours-old) were used for each bioassay. Non-diapausing larvae were used for all experiments unless otherwise indicated below. For each choice test a minimum of 10 replicates were conducted.
Corn Headspace Versus CO2. Using the glass bead bioassay (Bernklau and Bjostad 1998) the headspace over germinating corn seeds was tested in a choice test against a series of CO2 concentrations to determine if corn volatiles (including CO2) were more attractive to the larvae than CO2 alone. A 35-ml syringe was filled with the headspace over 3-day-old germinating corn seedlings by means of a 25-cm length of slender Teflon tubing inserted into a hole drilled into the cover of the tub containing the corn seedlings.
Three different concentrations of CO2 were tested on the control side of the choice test. In the 1 st test, we used ambient room air on the control side, which contains a lower concentration of CO2 than the corn headspace (approximately 1.0 mmol/mol). In the 2nd test, we used GC-MS-SIM to match the CO2 concentration in the syringe on the control side to be equal to that measured in the syringe containing corn headspace. In the 3rd test, the syringe on the control side of the choice test contained a CO2 concentration twice that measured in the corn headspace. To prepare each of these control concentrations, a 2nd 35-ml polyethylene syringe was partially filled (approximately 5 ml) from a tank containing pure (100%) CO2 using a glass syringe. Headspace from a plastic tub containing only moist germination paper was drawn into the syringe to fill it, mixing the air and CO2 thoroughly at the same time. The gas mixtures in the polyethylene syringes were allowed to equilibrate for 15 minutes, and GC-MS-SIM was used to verify the CO2 concentrations in both syringes prior to each bioassay.
Corn Headspace Versus CO2 with Diapausing Larvae. The larvae used in our studies were from a colony of nondiapausing western corn root worm that has been maintained in our laboratory since 1986. We wished to determine if diapausing western corn root worm larvae would respond differently to corn volatiles than the colony larvae. Using the same method described above, the headspace over germinating corn seeds was tested in a choice test against a series of CO2 concentrations with western corn root worm larvae from a diapausing strain.
Corn Headspace-Coated Glass Beads versus CO2. In the previous experiments, corn volatiles were introduced into the bottom of the Y-tube and carried through the glass beads by the airstream from the syringe pump. We also tested the possibility that some volatile compounds may have been removed from the airstream by coating out on the glass beads on the bottom of the Y-tube where they would not be available for the larvae to detect at the choice point near the middle of the Y-tube. […]

O=C=O [CO2, carbon dioxide]
CO2 concentration of best attraction [1]: 10 mmol per mol | CO2 concentration of best attraction [2]: 10 mmol per mol | role in attraction of larvae to corn roots (conclusion) [3]: the only attractive volatile compound that attracts western corn root worm larvae to corn roots
